Reference: patent US7230157B1, “Chemical inducible promoter used to obtain transgenic plants with a silent marker and organisms and cells and methods of using same for screening for mutations” (The Rockefeller University, priority 1998, dated 2007)

How the values were obtained:
tobacco leaf disks = assay: Shoot regeneration from tobacco leaf disks transfected with XVE-CKI1; type: cell-based; conditions: no externally applied plant hormones
Text: In addition to the GVG-ipt, pER8-CKI1 (XVE-CKI1) has been used to transfect tobacco leaf disks.

tobacco root cells = assay: Shoot regeneration from tobacco root cells transformed with XVE-CKI1; type: cell-based
Text: The XVE-CKI1 vector was also used to transform tobacco root cells. […] The explants were transferred to fresh MBC medium (with or without the inducer) every two weeks. […] The explants grown in the presence of inducer formed green callus. […] This experiment used the same number of root explants with inducer as without inducer. Since 65 calli formed with inducer and only 49 without inducer, overexpression of CKI1 may also increase the efficiency of callus formation.

[1] = system: Arabidopsis root explants; assay: Regeneration of Arabidopsis root explants transfected with XVE-CKI1; conditions: MIC medium with 5 μM 17-β-estradiol
tobacco leaf discs = assay: DEX-dependent regeneration and Luc activity of tobacco leaf discs transfected with pTA7002G/ipt/luc; type: cell-based, Nicotiana tabacum; conditions: for Percentage of LUC^+ regenerants / Total number of regenerants per 28 explants: Tobacco
Experimental: Nicotiana tabacum seeds cultivar SR1 were surface sterilized in 30% commercial bleach containing 0.02% Tween 20 for 10 minutes and washed five times with sterile water. Plants were grown in a tissue culture room at 22° C. at 16 hour light and 8 hour dark cycles. Tobacco transformation was essentially as described by Horsch et al. (1985) and Klee et al. (1987). Leaf discs were prepared from young leaves of four week old plants and the explants were cultured for two days on MB medium (MS salts, B5 vitamins, 20 g/L sucrose, 20 mg/L acetosyringone, 0.2% phytagel, pH 5.7). […] After 20 to 40 days of culturing, regenerated shoots were excised from explants and cultured on MS medium containing IAA to induce root regeneration.
(§1) The explants were transferred to fresh medium every two weeks to maintain constant culture conditions.
(§2) The transformation cassette pTA7002G/ipt/luc (FIG. 12) contained a luc gene under the control of the CaMV 35S promoter (Millar et al., 1992; Benfey and Chua, 1990). Luc activity was measured in order to estimate the number of transgenic shoots using the video imaging system described by Michelet and Chua (1996). Measurements were integrated over 5 minutes and the corresponding background was subtracted from the images (FIGS. 9A-F). Approximately 50% of the regenerants expressed the luc gene (Table 2).
To further characterize the transformation system, we examined the effects of the duration of induction as well as the effects of exogenously applied phytohormones. Time course experiments were performed to determine whether the specificity of the induction of the ipt gene decreases over time due to overproduction and diffusion of cytokinin, which could trigger regeneration events in neighboring, non-transformed cells. […] No significant difference in the percentage of regenerants with detectable Luc activity was found over time. After 20 days, 46% of regenerants had detectable Luc activity and after both 30 and 40 days 53% of regenerants had detectable Luc activity. […] Similar results have been obtained with lettuce.
No significant difference in luciferase activity occurred at different auxin concentrations. At 1.0 mg/mL auxin 45% of regenerants had detectable Luc activity, at 1.5 mg/mL auxin 58% of regenerants had detectable Luc activity, and at 2.0 mg/mL auxin 47% of regenerants had detectable Luc activity.

lettuce leaf disks = assay: DEX-dependent regeneration and Luc activity of lettuce leaf disks transfected with pTA7002G/ipt/luc; type: cell-based, Lactuca sativa; conditions: DEX 10 μM
Experimental: Sterilized lettuce […] (Lactuca sativa var. Great Lake #118) were germinated and the seedlings were grown as described for tobacco. Transformation of lettuce leaf discs was performed as described by Curtis et al. (1996) with the exception that cytokinin was omitted from the culture media.
as §1, §2

C[C@]12CC[C@@H]3c4ccc(O)cc4CC[C@H]3[C@@H]1CC[C@@H]2O [17-β-estradiol]
time of shoot initiation after induction (tobacco leaf disks): 25 to 35 days | time of shoot initiation after induction (tobacco root cells; 5 μM 17-β-estradiol): 40 to 50 days | white/brown calli that became green and produced shoots (tobacco root cells; MBC medium with 5 μM 17-β-estradiol): 13 out of 65 | time of culture until small dark green callus appears [1]: about 10 days | time of culture until small shoots appear [1]: about 15 days

C[C@@H]1C[C@H]2[C@@H]3CCC4=CC(=O)C=C[C@]4(C)[C@@]3(F)[C@@H](O)C[C@]2(C)[C@@]1(O)C(=O)CO [DEX, dexamethasone]
regenerants with detectable Luc activity (tobacco leaf discs; 10 μM DEX, after 20 days of induction, 54 regenerants): 46% | regenerants with detectable Luc activity (tobacco leaf discs; 10 μM DEX, after 30 days of induction): 53% | regenerants with detectable Luc activity (tobacco leaf discs; 10 μM DEX, after 40 days of induction): 53% | Percentage of LUC^+ regenerants (tobacco leaf discs; DEX 0.1 μM): 29 | Total number of regenerants per 28 explants (tobacco leaf discs; DEX 0.1 μM): 139 | Percentage of LUC^+ regenerants (tobacco leaf discs; DEX 1 μM): 44 | Total number of regenerants per 28 explants (tobacco leaf discs; DEX 1 μM): 129 | Percentage of LUC^+ regenerants (tobacco leaf discs; DEX 10 μM): 49 | Percentage of LUC^+ regenerants (lettuce leaf disks): 46 | Total number of regenerants per 28 explants (lettuce leaf disks): 198

auxin
regenerants with detectable Luc activity (tobacco leaf discs; 10 μM DEX, 40 days): 45% | regenerants with detectable Luc activity (tobacco leaf discs; 1.5 mg/mL auxin and 10 μM DEX, 40 days): 58% | regenerants with detectable Luc activity (tobacco leaf discs; 2.0 mg/mL auxin and 10 μM DEX, 40 days): 47%
